# Data as given in patent US9029410B2, “Pharmaceutical compositions for the treatment of movement disorders” (Sarah Herzog Memorial Hospital Ezrath Nashim Association, priority 2003, dated 2015).
# Legend:
# schizophrenia patients [1] = assay: PANSS, crossover trial of D-serine; assay type: in vivo, human; parameters: PANSS Positive Symptoms, treatment week 6: dose or concentration left out as unconfirmed; details: mean ± sd
# Description: (§1) The study was approved by the appropriate institutional review boards. Seventeen stable inpatients meeting DSM-IV criteria for schizophrenia and free of other axis I diagnoses or significant medical illness were enrolled in the study. Diagnosis was established on the basis of semistructured psychiatric interviews, review of all available medical records, and confirmation by two board-certified psychiatrists. […] Medication doses remained fixed throughout the study.
# (§2) After complete description of the study, written informed consent was obtained from all participating patients. The double-blind, placebo-controlled, crossover study consisted of two random-order 6-week treatment arms (glycine 0.8 g/kg/day, or placebo), separated by a 2-week adjuvant treatment washout. Patients were assessed biweekly with the Positive and Negative Syndrome Scale (PANSS), Brief Psychiatric Rating Scale (BPRS), Simpson-Angus Rating Scale (SAS), and Abnormal Involuntary Movement Scale (AIMS) performed by one trained research psychiatrist, as previously described (3). CBC and SMA-20 measures were assessed biweekly throughout the study. Trough glycine and serine serum levels were assessed at baseline and at the end of the two treatment phases. Data were analyzed by repeated measures ANOVA with within group factor of study phase (glycine/placebo) and time within study phase (pre/post), and between group factor of treatment order.
# (§3) Methods: Methods for this study are the same as in example 1, except that D-serine ([…]=approx. 2.1 g/day) was used for treatment. As previously, outcome was assessed using the PANSS, SAS and AIMS. In addition, the Schedule for Assessment of Negative Symptoms (SANS) was used to provide further assessment of negative symptoms. This represents an interim analysis of an ongoing study. Data were analyzed by between-treatment t-test of change scores during D-serine or placebo treatment. Data are analyzed only from subjects (n=23) who completed both study phases.
# schizophrenia patients [2] = assay: SANS, crossover trial of D-serine; assay type: in vivo, human
# Description: as §1
# as §2, with “The double-blind, placebo-controlled, crossover study consisted of two random-order 6-week treatment arms (glycine 0.8 g/kg/day, or placebo), separated by a 2-week adjuvant treatment washout.” left out, “order. […]” for “order.”
# schizophrenia patients [3] = assay: SAS, crossover trial of D-serine; assay type: in vivo, human
# Description: as §1, §2, §3
# schizophrenia patients [4] = assay: AIMS, crossover trial of D-serine; assay type: in vivo, human
# Description: as §1, §2, §3
# patients [5] = details: D-serine combined with clozapine; Tsai et al., 1999; cited from earlier work
# schizophrenia patients [6] = assay: PANSS, crossover trials of D-cycloserine (pooled); assay type: in vivo, human; details: mean ± sd
# Method: (§4) Patients fulfilled criteria for treatment resistance used in previous trials of glycine and had been receiving stable doses of olanzapine or risperidone for at least 3 months before study entry. Medication doses remained fixed throughout the study.
# (§5) Methods for this study are the same as in example 1, except that D-cycloserine (50 mg/d) was used for treatment. As previously, outcome was assessed using the PANSS, SAS and AIMS. In addition, the Schedule for Assessment of Negative Symptoms (SANS) was used to provide further assessment of negative symptoms. Data are pooled from two previously published studies (Heresco-Levy et al., 1998, 2002). Because analyses were confirmatory, one-tailed statistics were used throughout.
# schizophrenia patients [7] = assay: SAS, crossover trials of D-cycloserine (pooled); assay type: in vivo, human
# Method: as §4, §5
# schizophrenia patients [8] = assay: AIMS, crossover trials of D-cycloserine (pooled); assay type: in vivo, human
# Method: as §4, §5
# MPTP-treated monkeys [9] = details: low dose (320 or 1000 mg/kg as printed); cited from earlier work
# MPTP-treated monkeys [10] = details: cited from earlier work
# patients [11] = details: Tsai and Coyle '875; low baseline levels; cited from earlier work
# Sprague-Dewley rats = assay: Effects of chronic haloperidol treatment on motor activity; assay type: in vivo, rat
# Method: Rats were weighed biweekly throughout the study. Room temperature was maintained at 22±2° C.
# [12] = D-serine phase, week 0, mean ± sd, n=23
# [13] = D-serine, week 6, mean ± sd, n=23
# [14] = D-serine, week 6 minus week 0, mean ± sd
# [15] = during D-serine treatment, 6 weeks
# [16] = D-cycloserine 50 mg/d, week 6, n=26
# [17] = D-cycloserine 50 mg/d, week 6 minus week 0
# [18] = D-cycloserine phase, week 0, n=26
# [19] = D-cycloserine 50 mg/d, week 6, mean ± sd, n=26
# [20] = D-cycloserine 50 mg/d, week 6 minus week 0, mean ± sd
# [21] = D-cycloserine phase, week 0, mean ± sd, n=26
smiles,measurement,setting,value
N[C@H](CO)C(=O)O [D-serine],"PANSS Cognitive symptoms, treatment week 0","schizophrenia patients [1]; D-serine phase, week 0, n=23",8.5 ± 2.2
same,"PANSS Depression, treatment week 0","schizophrenia patients [1]; D-serine phase, week 0, n=23",5.3 ± 2.6
same,"PANSS Excitement, treatment week 0","schizophrenia patients [1]; D-serine phase, week 0, n=23",1.6 ± 1.5
same,"PANSS Negative symptoms, treatment week 0","schizophrenia patients [1]; D-serine phase, week 0, n=23",3.9 ± 4.0
same,"PANSS Positive Symptoms, treatment week 0","schizophrenia patients [1]; D-serine phase, week 0, n=23",4.2 ± 2.3
same,"PANSS Cognitive symptoms, treatment week 6","schizophrenia patients [1]; D-serine, week 6, n=23",17.1 ± 2.7
same,"PANSS Depression, treatment week 6","schizophrenia patients [1]; D-serine, week 6, n=23",13.8 ± 2.2
same,"PANSS Excitement, treatment week 6","schizophrenia patients [1]; D-serine, week 6, n=23",10.9 ± 1.4
same,"PANSS Negative symptoms, treatment week 6","schizophrenia patients [1]; D-serine, week 6, n=23",21.0 ± 3.5
same,"PANSS Positive Symptoms, treatment week 6","schizophrenia patients [1]; D-serine, week 6, n=23",13.0 ± 2.3
same,"PANSS Cognitive symptoms, Δ symptoms","schizophrenia patients [1]; D-serine, week 6 minus week 0",−1.4 ± 1.3
same,"PANSS Depression, Δ symptoms","schizophrenia patients [1]; D-serine, week 6 minus week 0",−1.5 ± 1.8
same,"PANSS Excitement, Δ symptoms","schizophrenia patients [1]; D-serine, week 6 minus week 0",−0.7 ± 1.2
same,"PANSS Negative symptoms, Δ symptoms","schizophrenia patients [1]; D-serine, week 6 minus week 0",−2.9 ± 1.9
same,"PANSS Positive Symptoms, Δ symptoms","schizophrenia patients [1]; D-serine, week 6 minus week 0",−1.2 ± 1.1
same,"SANS Total (with globals), treatment week 6","schizophrenia patients [2]; week 6, mean ± sd, n=23",51.9 ± 8.0
same,"SANS Total (with globals), Δ symptoms","schizophrenia patients [2]; week 6 minus week 0, mean ± sd",−9.0 ± 4.3
same,"SAS, treatment week 0",schizophrenia patients [3]; [12],4.2 ± 1.4
same,"SAS, treatment week 6",schizophrenia patients [3]; [13],2.4 ± 0.8
same,"SAS, Δ symptoms",schizophrenia patients [3]; [14],−1.8 ± 1.3
same,Decline in Parkinsonian symptoms as rated by the SAS,schizophrenia patients [3]; [15],42%
same,"AIMS, treatment week 0",schizophrenia patients [4]; [12],3.0 ± 0.8
same,"AIMS, treatment week 6",schizophrenia patients [4]; [13],1.6 ± 1.2
same,"AIMS, Δ symptoms",schizophrenia patients [4]; [14],−1.4 ± 1.1
same,Decline in dyskinetic symptoms as rated by the AIMS,schizophrenia patients [4]; [15],50%
same,Change in SAS or AIMS scores,patients [5],did not find significant change
N[C@@H]1CONC1=O [D-cycloserine],"PANSS General Psychopathaology, week 6 within treatment phase",schizophrenia patients [6]; [16],53.8 ± 8.2
same,"PANSS Negative symptoms, week 6 within treatment phase",schizophrenia patients [6]; [16],31.4 ± 6.5
same,"PANSS Positive symptoms, week 6 within treatment phase",schizophrenia patients [6]; [16],24.6 ± 4.1
same,"PANSS Total Symptoms, week 6 within treatment phase",schizophrenia patients [6]; [16],109.7 ± 15.8
same,"PANSS General Psychopathaology, Ä symptoms",schizophrenia patients [6]; [17],−4.9 ± 6.2
same,"PANSS Negative symptoms, Ä symptoms",schizophrenia patients [6]; [17],−3.2 ± 2.5
same,"PANSS Positive symptoms, Ä symptoms",schizophrenia patients [6]; [17],−2.1 ± 2.6
same,"PANSS Total Symptoms, Ä symptoms",schizophrenia patients [6]; [17],−10.2 ± 8.9
same,"PANSS General Psychopathaology, week 0 within treatment phase",schizophrenia patients [6]; [18],58.7 ± 8.4
same,"PANSS Negative symptoms, week 0 within treatment phase",schizophrenia patients [6]; [18],34.6 ± 6.2
same,"PANSS Positive symptoms, week 0 within treatment phase",schizophrenia patients [6]; [18],26.7 ± 4.5
same,"PANSS Total Symptoms, week 0 within treatment phase",schizophrenia patients [6]; [18],120 ± 16.7
same,Effect on Parkinsonian symptoms (SAS),"schizophrenia patients [7]; D-cycloserine 50 mg/d vs placebo, t=1.77, one tailed",nearly significant improvement
same,"SAS, week 6 within treatment phase",schizophrenia patients [7]; [19],3.6 ± 2.1
same,"SAS, Ä symptoms",schizophrenia patients [7]; [20],−0.7 ± 1.7
same,"SAS, week 0 within treatment phase",schizophrenia patients [7]; [21],4.3 ± 2.4
same,Effect on dyskinetic symptoms (AIMS),"schizophrenia patients [8]; D-cycloserine 50 mg/d vs placebo, t=2.21, p<0.025, one tailed",significant reduction
same,"AIMS, week 6 within treatment phase",schizophrenia patients [8]; [19],3.9 ± 3
same,"AIMS, Ä symptoms",schizophrenia patients [8]; [20],−0.8 ± 1.3
same,"AIMS, week 0 within treatment phase",schizophrenia patients [8]; [21],4.7 ± 3.1
same,Variable delayed-response task (VDR) performance,MPTP-treated monkeys [9],significantly improved
same,"Bradykinesia, tremor or other core Parkinsonian symptoms",MPTP-treated monkeys [10],did not show improvement
C[C@@H](N)C(=O)O [D-alanine],Changes in SAS or AIMS scores,patients [11],no significant changes
"CCCCCCCCCC(=O)OC1(c2ccc(Cl)cc2)CCN(CCCC(=O)c2ccc(F)cc2)CC1 [haloperidol, haloperidol decanoate]",Number of VCM episodes relative to rats that had received placebo,"Sprague-Dewley rats; haloperidol decanoate i.m. every four weeks, 24 weeks, p<0.001",approximately 4 fold
same,Mean time spent in immobility,"Sprague-Dewley rats; haloperidol for 24 weeks, 5 minute observation interval, placebo 53.0±12.7",103.2 ± 7.8 s
same,Number of rearing episodes vs placebo,"Sprague-Dewley rats; haloperidol for 24 weeks, p<0.0001",significantly lower
same,Number of grooming episodes vs controls,"Sprague-Dewley rats; haloperidol for 24 weeks, p<0.17",did not differ
